# Measured values published in BindingDB's records for patent US20240239813 (Risen (Suzhou) Pharma Tech Co., 2024).
# Molecular target: GTPase KRas [G12D] (Homo sapiens, UniProt P01116, G12D)
# Assay: KRAS Binding Assay
# Experimental: The ability of a test compound to bind to KRASG12D was measured by using an HTRF KRASG12D GTP Binding Kit (Cisbio, 63ADK000CB27PEG). […] 5 μL of compound solution was added to each well after serial dilution, followed by addition of 5 μL of GDP (50 nM) solution. After 30 minutes incubation at room temperature, 1×6His Eu cryptate antibody solution and GTP-Red tracer were added to the plate, then incubated for another 30 minutes. The HTRF signal was measured with a VICTOR Nivo multimode plate reader according to the manufacturer's instructions.
# GTPase KRas [G12D], sequence (P01116 whole entry G12D): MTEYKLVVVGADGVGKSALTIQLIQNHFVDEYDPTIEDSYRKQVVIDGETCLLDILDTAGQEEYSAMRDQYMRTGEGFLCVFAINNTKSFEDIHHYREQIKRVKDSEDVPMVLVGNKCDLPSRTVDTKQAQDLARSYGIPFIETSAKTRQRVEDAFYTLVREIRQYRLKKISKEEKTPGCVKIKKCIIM
row,IC50,Compound
1,> 1 µM,"Oc1cc(-c2ncc3c(N4CCCC5(CCO5)C4)nc(OC[C@@]45CCCN4C[C@H](F)C5)nc3c2F)c2ccccc2c1 (some centres undefined) [US20240239813, Compound 8a]"
2,> 1 µM,"CN(C)CC1(COc2nc(N3CCC[C@]4(CCO4)C3)c3cnc(-c4cc(N)ccc4-c4cccs4)c(F)c3n2)CC1 [US20240239813, Compound 17a]"
3,> 1 µM,"CCc1c(F)ccc2cc(OC(=O)C(C)C)cc(-c3ncc4c(N5CCC[C@]6(CCO6)C5)nc(OCC5(CN(C)C)CC5)nc4c3F)c12 [US20240239813, Compound 22a]"
4,> 1 µM,"CCc1c(F)ccc2cc(O)cc(-c3ncc4c(N5CCC(O)(CO)CC5)nc(OC[C@@]56CCCN5C[C@H](F)C6)nc4c3F)c12 [US20240239813, Compound 41]"
5,> 1 µM,"CCc1c(F)ccc2cc(O)cc(-c3ncc4c(N5C[C@H](O)[C@@H](O)[C@H](O)[C@H]5CO)nc(OC[C@@]56CCCN5C[C@H](F)C6)nc4c3F)c12 [US20240239813, Compound 51]"
6,> 1 µM,"Cc1ccc2[nH]ncc2c1-c1ncc2c(N3CCCC4(CCO4)C3)nc(OC[C@@]34CCCN3C[C@H](F)C4)nc2c1F (some centres undefined) [US20240239813, Compound 71]"

row,Compound,IC50
1,"CCc1c(F)ccc2cc(O)cc(-c3ncc4c(N5[C@@H]6CC[C@H]5C[C@@H](O)C6)nc(OC[C@@]56CCCN5C[C@H](F)C6)nc4c3F)c12 [US20240239813, Compound 10]",0.881 µM
2,"CCc1c(F)ccc2cc(O)cc(-c3ncc4c(N5[C@@H]6CC[C@H]5C[C@H](O)C6)nc(OC[C@@]56CCCN5C[C@H](F)C6)nc4c3F)c12 [US20240239813, Compound 11]",> 1 µM
3,"CCc1c(F)ccc2cc(OC(=O)N(C)C)cc(-c3ncc4c(N5CCC[C@]6(CCO6)C5)nc(OCC5(CN(C)C)CC5)nc4c3F)c12 [US20240239813, Compound 24a]",> 1 µM
